Test results: ChEMBL document CHEMBL1649461, “Fitness cost of VanA-type vancomycin resistance in methicillin-resistant Staphylococcus aureus” (2009)
In brackets after ≈: the same amount, converted by molar mass.

What was measured:
Type in all cases: functional
Staphylococcus aureus [1] = assay: Antimicrobial activity against VanA-type vancomycin-resistant and methicillin-resistant Staphylococcus aureus 1 by broth dilution method
Staphylococcus aureus [2] = assay: Antimicrobial activity against VanA-type vancomycin-resistant and methicillin-resistant Staphylococcus aureus 5 by broth dilution method
Staphylococcus aureus [3] = assay: Antimicrobial activity against VanA-type vancomycin-resistant and methicillin-resistant Staphylococcus aureus 6 by broth dilution method
Staphylococcus aureus [4] = assay: Antimicrobial activity against methicillin-resistant Staphylococcus aureus HIP11713 by broth dilution method

For `CC(=O)N[C@@H]1[C@H](Oc2c3cc4cc2Oc2ccc(cc2Cl)[C@@H](O[C@@H]2O[C@@H](CO)[C@@H](O)[C@H](O)[C@@H]2NC(C)=O)[C@@H]2NC(=O)[C@H](NC(=O)[C@@H]4NC(=O)[C@H]4NC(=O)[C@@H](Cc5ccc(c(Cl)c5)O3)NC(=O)[C@H](N)c3ccc(O)c(c3)Oc3cc(O)cc4c3)c3ccc(O)c(c3)-c3c(O[C@H]4O[C@H](CO)[C@@H](O)[C@@H](O)[C@@H]4O)cc(O)cc3[C@@H](C(=O)O)NC2=O)O[C@@H](CO)[C@@H](O)[C@@H]1O`, the MIC (Staphylococcus aureus [1]) was 256 µg/mL (≈ 145 µM), the MIC (Staphylococcus aureus [2]) was 64 µg/mL (≈ 36.2 µM) and the MIC (Staphylococcus aureus [3]) was 128 µg/mL (≈ 72.4 µM). For the same compound, the MIC (Staphylococcus aureus [4]) was 1 µg/mL (≈ 0.566 µM).

`CN[C@H](CC(C)C)C(=O)N[C@H]1C(=O)N[C@@H](CC(N)=O)C(=O)N[C@H]2C(=O)N[C@H]3C(=O)N[C@H](C(=O)N[C@H](C(=O)O)c4cc(O)cc(O)c4-c4cc3ccc4O)[C@H](O)c3ccc(c(Cl)c3)Oc3cc2cc(c3O[C@@H]2O[C@H](CO)[C@@H](O)[C@H](O)[C@H]2O[C@H]2C[C@](C)(N)[C@H](O)[C@H](C)O2)Oc2ccc(cc2Cl)[C@H]1O` [VANCOMYCIN] showed an MIC (Staphylococcus aureus [1]) of 2050 µg/mL (≈ 1410 µM), an MIC (Staphylococcus aureus [2]) of 1020 µg/mL (≈ 707 µM) and an MIC (Staphylococcus aureus [3]) of 1020 µg/mL (≈ 707 µM).
